Like-named read-outs stand apart in the source and are kept apart here.
How the values were obtained:
MCF7 cells = experiment: Live-cell imaging proliferation assay (Incucyte), MCF7; assay type: cell-based; conditions: for GI50: Homo sapiens, MCF7, 120 h, read-out: approximate GI50; for mean decrease in MCF7 cell growth relative to control: 5 days, Compound A 10 nM
From the text: (§1) FIGS. 1A-1H are graphs showing quantification of the MCF7 and T47D live-cell imaging proliferation assays. […] Each plot is representative of three independent experiments. […] Each plot is representative of three independent experiments, except for the T47D fulvestrant arms in FIGS. 1A and 1C, which are the result of 2 independent experiments). FIGS. 1B, 1D, 1F and 1H show differences in relative MCF7 and T47D cell growth compared to vehicle control at 120-hours of treatment. Graphs show the mean of three independent experiments, except for the T47D fulvestrant arms in FIGS. 1B and 1D, which are the result of 2 independent experiments). Error bars=standard error of the mean (SEM). *p<0.025, **p≤0.008, ***p≤0.0006, ****p<0.0001, ns=not significant (one-way ANOVA test).
(§2) MCF7 or T47D cells were seeded in 6 well plates and treated with the indicated concentrations of compounds. The plate was then placed in the Incucyte® S3 Live-Cell Analysis System and images were acquired every 4 hours for a total of 5 days. Data were analyzed using the Incucyte® Software v2020C which quantified cell surface area coverage as confluence values. Relative growth was calculated for all timepoints for all growth conditions relative to the confluence value observed for the control at 120 hours (FIGS. 1A and 1C). Graphing and statistical analyses were performed using Graphpad Prism (GraphPad Software).
(§3) For fulvestrant and fulvestrant plus abemaciclib, mean decreases in MCF7 cell growth were 48% and 68%, respectively.

T47D cells = experiment: Live-cell imaging proliferation assay (Incucyte), T47D; assay type: cell-based; conditions: Homo sapiens, 120 h; for GI50: read-out: approximate GI50
From the text: as §1, §2, §3

MCF7 xenograft = MCF7 xenograft model, palbociclib study; assay type: in vivo, NOD/SCID mice; conditions: 28 days; Compound A 30 mg/kg PO QD, fulvestrant 200 mg/kg SC, palbociclib 60 mg/kg PO QD; FIG. 5
Description: Female severe combined immunodeficient mouse in non-obese background (NOD/scid) mice were implanted with MCF7 cells and compound administration was initiated once the tumors reached 200 mm^3. Tumor volumes were evaluated twice per week for 28 days. […] Data are presented as mean±standard error of the mean (SEM)
(§4) Briefly, MCF7 cells were orthotopically implanted into the mammary fat pads of NOD/SCID female mice. 17β-estradiol 0.72 mg 90-day pellet (Innovative Research of America) were implanted 2-3 days prior to MCF7 cell implant. […] Compound A- and/or combination partner-treated mice were dosed orally once daily. Fulvestrant-treated mice were dosed subcutaneously twice per week for 2 weeks followed by once weekly for 2 weeks.
Vehicle for abemaciclib was 1% […] (HEC) in 20 mM HCl pH2. Vehicle for ribociclib was 0.5% methylcellulose. Vehicle for fulvestrant was 10% w/v ethanol, 10% w/v benzyl alcohol, 15% w/v benzyl benzoate, made up to 100% w/v with castor oil. […] Tumor volumes were measured twice per week in efficacy studies and calculated using (width^2×length)/2, where all measurements are in millimeters (mm) and the tumor volume is in mm^3. Body weights were recorded twice per week. […] Tumor growth inhibition (TGI) was calculated as follows, where tumor volume is in mm^3: […]

[1] = Biopharmaceutics Classification System classification; assay type: physicochemical
[2] = Interconversion of Compound A to Compound B; assay type: physicochemical
[3] = human, in vivo
[4] = Clinical Pharmacology Study: safety in healthy volunteers; conditions: 200 mg, 47 healthy participants
[5] = FIH Study Part C: pharmacokinetics in patients with breast cancer; assay type: in vivo, human; conditions: preliminary
Description: Additional evaluation will include single- and multiple-dose pharmacokinetics and biochemical activity.
Palbociclib was administered orally once a day at 125 mg/day for 21 days followed by 7 days off treatment for each 28-day cycle according to product labeling and in compliance with its local prescribing information.
Anticancer Drugs. 2018 March; 29 (3): 271280).

[6] = Exposure of Compound B relative to Compound A (preclinical data)
ER = target: T1, ER (Homo sapiens, UniProt P03372); experiment: ER degradation
T1 construct: degradation by PROTAC
T1 sequence (P03372 1-595): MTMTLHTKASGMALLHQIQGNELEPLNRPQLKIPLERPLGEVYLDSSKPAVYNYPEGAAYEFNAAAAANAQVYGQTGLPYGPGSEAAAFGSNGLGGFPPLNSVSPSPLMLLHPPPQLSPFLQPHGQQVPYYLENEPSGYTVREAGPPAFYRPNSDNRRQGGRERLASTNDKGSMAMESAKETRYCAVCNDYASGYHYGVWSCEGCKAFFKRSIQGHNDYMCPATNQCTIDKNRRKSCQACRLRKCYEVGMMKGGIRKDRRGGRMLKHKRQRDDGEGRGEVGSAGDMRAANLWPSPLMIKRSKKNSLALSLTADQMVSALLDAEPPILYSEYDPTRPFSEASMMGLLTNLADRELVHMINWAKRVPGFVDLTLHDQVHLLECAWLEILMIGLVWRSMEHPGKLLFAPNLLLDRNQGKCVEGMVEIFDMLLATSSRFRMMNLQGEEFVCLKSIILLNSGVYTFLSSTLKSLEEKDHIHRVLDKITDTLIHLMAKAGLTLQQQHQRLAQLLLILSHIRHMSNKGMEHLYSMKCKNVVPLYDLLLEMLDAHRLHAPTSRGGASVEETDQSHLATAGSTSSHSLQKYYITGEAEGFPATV

[7] = tested on: MCF7 orthotopic xenograft; experiment: MCF7 orthotopic xenograft model, abemaciclib study; assay type: in vivo, NOD/SCID mice; conditions: 28 days; Compound A 30 mg/kg, abemaciclib 30 mg/kg orally QD, fulvestrant 200 mg/kg SC; FIG. 3A
Description: Briefly, MCF7 cells were orthotopically implanted into the mammary fat pads of NOD/SCID female mice. 17β-estradiol 0.72 mg 90-day pellet (Innovative Research of America) were implanted 2-3 days prior to MCF7 cell implant. […] Fulvestrant-treated mice were dosed subcutaneously twice per week for 2 weeks followed by once weekly for 2 weeks.
Eight- to ten-week-old female NOD/SCID mice were surgically implanted with a 0.36 mg 90-day release 17β-estradiol pellet subcutaneously. One to two days later each mouse was injected with 5×10^6/200 μL MCF7 cells into one mammary fat pad. […] Fulvestrant (200 mg/kg, subcutaneously; twice per week for 2 weeks followed by once-weekly for 2 weeks) was also evaluated as a single agent and in combination with abemaciclib and ribociclib. […]
Vehicle for abemaciclib was 1% hydroxymethyl cellulose (HEC) in 20 mM HCl pH2. […] Tumor volumes were measured twice per week in efficacy studies and calculated using (width^2×length)/2, where all measurements are in millimeters (mm) and the tumor volume is in mm^3. Body weights were recorded twice per week. […] Tumor growth inhibition (TGI) was calculated as follows, where tumor volume is in mm^3:

[8] = tested on: MCF7 orthotopic xenograft; experiment: MCF7 orthotopic xenograft model, ribociclib study; assay type: in vivo, NOD/SCID mice; conditions: 28 days; Compound A 30 mg/kg, ribociclib 75 mg/kg orally QD, fulvestrant 200 mg/kg SC; FIG. 3B
Description: Mean tumor volumes are reported ±SEM. Single-day dosing holidays are indicated by small black arrows.
Compounds dosed as single agents or in combination, 10 mice/arm.
as §4
Eight- to ten-week-old female NOD/SCID mice were surgically implanted with a 0.36 mg 90-day release 17β-estradiol pellet subcutaneously. […] Fulvestrant (200 mg/kg, subcutaneously; twice per week for 2 weeks followed by once-weekly for 2 weeks) was also evaluated as a single agent and in combination with abemaciclib and ribociclib. […]
Vehicle for abemaciclib was 1% […] (HEC) in 20 mM HCl pH2. […] Tumor volumes were measured twice per week in efficacy studies and calculated using (width^2×length)/2, where all measurements are in millimeters (mm) and the tumor volume is in mm^3. Body weights were recorded twice per week. […] Tumor growth inhibition (TGI) was calculated as follows, where tumor volume is in mm^3: […]

[9] = read-out: mean change in T47D cell growth relative to control
[10] = read-out: mean decrease in T47D cell growth relative to control
[11] = with palbociclib, 180 up to 500 mg QD Compound A, Cycle 1 Day 1 and Day 15
[12] = abemaciclib experiment, fulvestrant 1 nM, abemaciclib 40 nM (approx. GI50)

## O=C1CC[C@H](N2Cc3cc(N4CCN(CC5CCN(c6ccc([C@@H]7c8ccc(O)cc8CC[C@@H]7c7ccccc7)cc6)CC5)CC4)ccc3C2=O)C(=O)N1 [Compound A, (S)-3-(5-(4-((1-(4-((1R,2S)-6-hydroxy-2-phenyl-1,2,3,4-tetrahydronaphthalen-1-yl)phenyl)piperidin-4-yl)methyl)piperazin-1-yl)-1-oxoisoindolin-2-yl)piperidine-2,6-dione]
MCF7 cells
  GI50: ~10 nM
T47D cells
  GI50: ~10 nM
T47D cells; [9]
  inhibition at 0.01 µM: 41%
T47D cells; [10]
  inhibition at 0.01 µM: 42%
MCF7 xenograft
  tumor growth inhibition (TGI): 105%
[1]
  Biopharmaceutics Classification System Class: Class IV
  permeability (BCS): low permeability
  solubility (BCS): low solubility
[2]
  interconversion to Compound B: can interconvert
[3]
  SAEs, SARs or deaths: No SAEs, SARs or deaths were reported
[4]
  TRAEs of Grade 2 or higher: no TRAEs of Grade 2 or higher were reported
  tolerability: well-tolerated

## O=C1CC[C@@H](N2Cc3cc(N4CCN(CC5CCN(c6ccc([C@@H]7c8ccc(O)cc8OC[C@@H]7c7ccccc7)cc6)CC5)CC4)ccc3C2=O)C(=O)N1 [Compound B]
[5]; [11]
  AUCtau, dose dependence: dose-dependent increases
  Cmax, dose dependence: dose-dependent increases
[6]
  exposure of Compound B compared to Compound A: < 26%
ER
  degradation of the ER: does not degrade the ER

## CCN1CCN(Cc2ccc(Nc3ncc(F)c(-c4cc(F)c5nc(C)n(C(C)C)c5c4)n3)nc2)CC1 [abemaciclib, N-(5-((4-ethylpiperazin-1-yl)methyl)pyridin-2-yl)-5-fluoro-4-(4-fluoro-1-isopropyl-2-methyl-1H-benzo[d]imidazol-6-yl)pyrimidin-2-amine]
MCF7 cells
  GI50: ~40 nM
MCF7 cells; [12]
  mean decrease in MCF7 cell growth relative to control: 49%
T47D cells
  GI50: ~40 nM
T47D cells; [10]
  inhibition at 0.04 µM: 32%
[7]
  tumor growth inhibition (TGI): 50%

## C[C@]12CC[C@@H]3c4ccc(O)cc4C[C@@H](CCCCCCCCC[S+]([O-])CCCC(F)(F)C(F)(F)F)[C@H]3[C@@H]1CC[C@@H]2O (stereo partly shown) [fulvestrant]
MCF7 cells
  GI50: ~1 nM
MCF7 cells; [12]
  mean decrease in MCF7 cell growth relative to control: 48%
T47D cells
  GI50: ~1 nM
T47D cells; [10]
  inhibition at 0.001 µM: 16%
MCF7 xenograft
  tumor growth inhibition (TGI): 46%
[7]
  tumor growth inhibition (TGI): 42%
[8]
  tumor growth inhibition (TGI): 31%

## CC(=O)c1c(C)c2cnc(Nc3ccc(N4CCNCC4)cn3)nc2n(C2CCCC2)c1=O [palbociclib, 6-acetyl-8-cyclopentyl-5-methyl-2-(5-piperazin-1-yl-pyridin-2-ylamino)-8H-pyrido[2,3-d]pyrimidin-7-one]
[5]; Cycle 1 Day 15, 125 mg QD palbociclib with 500 mg QD Compound A
  increase in palbociclib AUCtau vs PALOMA-1 and PALOMA-2: ~34%

## CN(C)C(=O)c1cc2cnc(Nc3ccc(N4CCNCC4)cn3)nc2n1C1CCCC1 [ribociclib, 7-cyclopentyl-N,N-dimethyl-2-[(5-piperazin-1-ylpyridin-2-yl)amino]pyrrolo[2,3-d]pyrimidine-6-carboxamide]
MCF7 cells
  GI50: ~40 nM
MCF7 cells; ribociclib experiment, ribociclib 40 nM (approx. GI50)
  mean decrease in MCF7 cell growth relative to control: 44%
T47D cells
  GI50: ~40 nM
T47D cells; [9]
  inhibition at 0.04 µM: 32%
[8]
  tumor growth inhibition (TGI): 58%
